Measured values as given in PubChem BioAssay AID256 (DTP/NCI, 2004).
Several values for one entry are separate records, joined by “and”; a condition that tells them apart may be missing. Equal values may be shown once. Inconclusive results and toxic doses are left out. The calls were made as follows: active = survival T/C of 150% or more; inactive = T/C below 125% in these data.

System: CD2F1 mice, L1210 leukemia ip, survival T/C
Assay: NCI In Vivo Anticancer Drug Screen. Data for tumor model L1210 Leukemia (intraperitoneal) in CD2F1 (CDF1) mice
Conditions: higher = longer survival
In short: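 Vehicle-treated tumor-bearing mice served as controls (C) for compound-treated mice (T). Reported figure is T divided by C.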

[1] = endpoint: mean survival time, dose: 100.0 mg/kg/injection, schedule: Q01DX001 (ip), vehicle: saline with Tween-80
[2] = endpoint: mean survival time, dose: 100.0 mg/kg/injection, schedule: Q04DX002 (ip), vehicle: saline with Tween-80
[3] = endpoint: mean survival time, dose: 200.0 mg/kg/injection, schedule: Q04DX002 (ip), vehicle: saline with Tween-80
[4] = endpoint: mean survival time, dose: 400.0 mg/kg/injection, schedule: Q04DX002 (ip), vehicle: saline with Tween-80
[5] = endpoint: mean survival time, dose: 25.0 mg/kg/injection, schedule: Q04DX002 (ip), vehicle: saline with Tween-80
[6] = endpoint: mean survival time, dose: 50.0 mg/kg/injection, schedule: Q04DX002 (ip), vehicle: saline with Tween-80
[7] = endpoint: mean survival time, dose: 100.0 mg/kg/injection, schedule: Q01DX009 (ip), vehicle: saline with Tween-80
[8] = endpoint: mean survival time, dose: 100.0 mg/kg/injection, schedule: Q04DX003 (ip), vehicle: saline with Tween-80
[9] = endpoint: mean survival time, dose: 200.0 mg/kg/injection, schedule: Q01DX009 (ip), vehicle: saline with Tween-80
[10] = endpoint: mean survival time, dose: 200.0 mg/kg/injection, schedule: Q04DX003 (ip), vehicle: saline with Tween-80
[11] = endpoint: mean survival time, dose: 400.0 mg/kg/injection, schedule: Q04DX003 (ip), vehicle: saline with Tween-80
[12] = endpoint: mean survival time, dose: 400.0 mg/kg/injection, schedule: Q01DX009 (ip), vehicle: saline with Tween-80
[13] = endpoint: mean survival time, dose: 12.5 mg/kg/injection, schedule: Q01DX005 (ip), vehicle: distilled water + Tween-80
[14] = endpoint: mean survival time, dose: 25.0 mg/kg/injection, schedule: Q01DX005 (ip), vehicle: distilled water + Tween-80
[15] = endpoint: mean survival time, dose: 50.0 mg/kg/injection, schedule: Q01DX005 (ip), vehicle: distilled water + Tween-80
[16] = endpoint: mean survival time, dose: 100.0 mg/kg/injection, schedule: Q01DX005 (ip), vehicle: distilled water + Tween-80
[17] = endpoint: mean survival time, dose: 200.0 mg/kg/injection, schedule: Q01DX001 (ip), vehicle: saline with Tween-80

Measured: T/C

C1CC[N-]CC1.C1CC[N-]CC1.N#C[S-].N#C[S-].[Cu]
inactive: endpoint: mean survival time, dose: 2.5 mg/kg/injection, schedule: Q04DX003 (ip), vehicle: saline with Tween-80 98 % of control | endpoint: mean survival time, dose: 5.0 mg/kg/injection, schedule: Q04DX003 (ip), vehicle: saline with Tween-80 92 % of control

CC1(C)CC(=O)C2=C(C1)OC1(O)CC(C)(C)CC(=O)C1C2c1ccccc1[N+](=O)[O-] (stereo not drawn)
inactive: endpoint: mean survival time, dose: 3.13 mg/kg/injection, schedule: Q01DX001 (ip), vehicle: saline with Tween-80 103 % of control | endpoint: mean survival time, dose: 3.13 mg/kg/injection, schedule: Q01DX009 (ip), vehicle: saline with Tween-80 100 % of control | endpoint: mean survival time, dose: 6.25 mg/kg/injection, schedule: Q01DX001 (ip), vehicle: saline with Tween-80 90 % of control | endpoint: mean survival time, dose: 6.25 mg/kg/injection, schedule: Q01DX009 (ip), vehicle: saline with Tween-80 107 % of control | endpoint: mean survival time, dose: 12.5 mg/kg/injection, schedule: Q01DX001 (ip), vehicle: saline with Tween-80 97 % of control | endpoint: mean survival time, dose: 12.5 mg/kg/injection, schedule: Q01DX009 (ip), vehicle: saline with Tween-80 97 % of control | [1] 87 % of control

CCCCCCCCCCCCOc1c(Cl)cc(Cl)cc1Cl
inactive: [2] 101 % of control | [3] 101 % of control | [4] 104 % of control

O=C1C(Cl)=C(NCC2CCC(CO)CC2)C(=O)c2ccccc21 (stereo not drawn)
inactive: endpoint: mean survival time, dose: 6.25 mg/kg/injection, schedule: Q04DX003 (ip), vehicle: saline with Tween-80 98 % of control | endpoint: mean survival time, dose: 12.5 mg/kg/injection, schedule: Q04DX003 (ip), vehicle: saline with Tween-80 97 % of control | endpoint: mean survival time, dose: 25.0 mg/kg/injection, schedule: Q04DX003 (ip), vehicle: saline with Tween-80 95 % of control and 98 % of control

Cc1ccc(C(C)NC2=NCCO2)c(C)c1 (stereo not drawn)
inactive: [5] 91 % of control | [6] 95 % of control

N#C/C=C1\NC(=O)CS1
inactive: [7] 114 % of control | [8] 96 % of control | [9] 101 % of control | [10] 100 % of control | [11] 102 % of control

O=c1[nH]c(=O)n(C2SC(CO)C(O)C2O)cc1F (stereo not drawn)
inactive: endpoint: mean survival time, dose: 178.0 mg/kg/injection, schedule: Q01DX009 (ip), vehicle: saline with Tween-80 113 % of control | endpoint: mean survival time, dose: 267.0 mg/kg/injection, schedule: Q01DX009 (ip), vehicle: saline with Tween-80 113 % of control | [12] 119 % of control

O=c1[nH]c(=O)n(C2CC(O)C(CO)O2)cc1/C=C/c1cccc([N+](=O)[O-])c1 (stereo not drawn)
inactive: endpoint: mean survival time, dose: 6.25 mg/kg/injection, schedule: Q01DX005 (ip), vehicle: distilled water + Tween-80 98 % of control | [13] 97 % of control | [14] 95 % of control | [15] 93 % of control | [16] 94 % of control

CCc1ccc(C)[nH]c1=S
inactive: endpoint: mean survival time, dose: 50.0 mg/kg/injection, schedule: Q01DX009 (ip), vehicle: saline with Tween-80 105 % of control | [1] 102 % of control | [7] 98 % of control | [17] 102 % of control | [9] 98 % of control

Cc1c(O)/c(=C\O)c2nc3c(=O)ccc(C(=O)NCCN(C)C)c3[nH]c2c1=O
inactive: endpoint: median survival time, dose: 12.5 mg/kg/injection, schedule: Q01DX005 (ip), vehicle: water 103 % of control and 110 % of control | endpoint: median survival time, dose: 18.0 mg/kg/injection, schedule: Q01DX005 (ip), vehicle: water 115 % of control | endpoint: median survival time, dose: 25.0 mg/kg/injection, schedule: Q01DX005 (ip), vehicle: water 114 % of control and 105 % of control

CC(=O)N(C)c1ccc(NC(=O)Nc2ccc(C)cc2[N+](=O)[O-])cc1
inactive: endpoint: mean survival time, dose: 100.0 mg/kg/injection, schedule: Q01DX009 (ip), vehicle: Klucel (hydroxypropylcellulose) (HPC) 95 % of control | endpoint: mean survival time, dose: 200.0 mg/kg/injection, schedule: Q01DX009 (ip), vehicle: Klucel (hydroxypropylcellulose) (HPC) 92 % of control | endpoint: mean survival time, dose: 400.0 mg/kg/injection, schedule: Q01DX009 (ip), vehicle: Klucel (hydroxypropylcellulose) (HPC) 92 % of control

COc1ccc(N=C(C(=O)c2ccccc2)c2ccccc2)cc1
inactive: [1] 95 % of control | [17] 93 % of control | endpoint: mean survival time, dose: 400.0 mg/kg/injection, schedule: Q01DX001 (ip), vehicle: saline with Tween-80 100 % of control

CN1N=C(N)c2cn(C3OC(CO)C4OC(C)(C)OC43)c3ncnc1c23 (stereo not drawn)
inactive: endpoint: mean survival time, dose: 12.5 mg/kg/injection, schedule: Q01DX005 (ip), vehicle: water 87 % of control | endpoint: mean survival time, dose: 25.0 mg/kg/injection, schedule: Q01DX005 (ip), vehicle: water 96 % of control | endpoint: mean survival time, dose: 50.0 mg/kg/injection, schedule: Q01DX005 (ip), vehicle: water 104 % of control | endpoint: mean survival time, dose: 100.0 mg/kg/injection, schedule: Q01DX005 (ip), vehicle: water 104 % of control

CN(C)C(=O)Nc1nc2ccccc2s1
inactive: [5] 103 % of control | [6] 95 % of control | [2] 115 % of control and 93 % of control | [4] 90 % of control

CC(=O)O/C=C/C=C/C=N/c1nc2c(c(=O)n(C)c(=O)n2C)n1C
inactive: [13] 105 % of control | [14] 91 % of control | [15] 94 % of control | [16] 103 % of control | endpoint: mean survival time, dose: 200.0 mg/kg/injection, schedule: Q01DX005 (ip), vehicle: distilled water + Tween-80 97 % of control

CCCCOC(=O)Nc1ccccn1
inactive: [2] 101 % of control | [3] 104 % of control

CC12C=C(C(=O)c3ccccc3)C(CC1)C2(C)C (stereo not drawn)
inactive: [7] 95 % of control | [8] 96 % of control | [9] 97 % of control | [10] 93 % of control | [12] 97 % of control | [11] 91 % of control

CCOC(=O)C(CCC(=O)OC)(CCC(=O)OC)C(=O)OCC
inactive: endpoint: mean survival time, dose: 100.0 mg/kg/injection, schedule: Q01DX005 (ip), vehicle: other 95 % of control | endpoint: mean survival time, dose: 100.0 mg/kg/injection, schedule: Q01DX009 (ip), vehicle: other 101 % of control | endpoint: mean survival time, dose: 100.0 mg/kg/injection, schedule: Q04DX002 (ip), vehicle: other 88 % of control | endpoint: mean survival time, dose: 200.0 mg/kg/injection, schedule: Q01DX005 (ip), vehicle: other 91 % of control | endpoint: mean survival time, dose: 200.0 mg/kg/injection, schedule: Q01DX009 (ip), vehicle: other 97 % of control | endpoint: mean survival time, dose: 200.0 mg/kg/injection, schedule: Q04DX002 (ip), vehicle: other 92 % of control | endpoint: mean survival time, dose: 400.0 mg/kg/injection, schedule: Q01DX005 (ip), vehicle: other 91 % of control | endpoint: mean survival time, dose: 400.0 mg/kg/injection, schedule: Q01DX009 (ip), vehicle: other 86 % of control | endpoint: mean survival time, dose: 400.0 mg/kg/injection, schedule: Q04DX002 (ip), vehicle: other 95 % of control

CC1(C)N=C(N)N=C(N)N1c1cccc([N+](=O)[O-])c1
inactive: [2] 96 % of control

NC(=O)n1ccnc1
inactive: endpoint: mean survival time, dose: 50.0 mg/kg/injection, schedule: Q01DX001 (ip), vehicle: saline 96 % of control | endpoint: mean survival time, dose: 100.0 mg/kg/injection, schedule: Q01DX001 (ip), vehicle: saline 98 % of control | endpoint: mean survival time, dose: 200.0 mg/kg/injection, schedule: Q01DX001 (ip), vehicle: saline 108 % of control
